Measurements: patent US10618900B2, “5-aromatic alkynyl substituted benzamide compound and preparation method, pharmaceutical composition, and use thereof” (SHANGHAI INSTITUTE OF MATERIA MEDICA, CHINESE ACADEMY OF …, priority 2015, dated 2020)

Experiments:
[1] = test system: Fmr1 knockout mice; experiment: Audiogenic epilepsy induced animal model of Fmr1 knockout mice; format: in vivo; conditions: for Seizure level: level 0-4
Method: In this study, we used audiogenic epilepsy induced animal model of Fmr1 knockout mice, and evaluated the efficacy of compound ZD043 with epilepsy seizure latency, seizure level and epileptic mortality as evaluation indexes.
Species, strain: Fmr1 knockout mice, FVB.129P2-Pde6b^+ Tyr^c-ch Fmr1^tm1Cgr/J (strain number 004624)
Test reagent and preparation method: before the experiment, 2.0 mg ZD043 was weighed in 2 mL centrifuge tube, 10 uL DMSO was taken with a precise pipette to dissolve ZD043 powder, then 10 uL Tween80 was added, mixed and 980 uL of saline was added, well mixed to form a suspension liquid.
Methods: The mice were weighed on the day of the experiment. The mice were injected intraperitoneally into 19 to 22 days Fmr1 knockout mice respectively according to the experimental design group 30 minutes before the convulsive test. The mice to be tested were transferred to a sonic seizure test laboratory, placed in a transparent organic glass bucket, and a high-decibel siren loudspeaker was fixed on the top of organic glass bucket. Before delivering the stimulate sound, the mouse was allowed to explore freely for 1 minute, then turn on the loudspeaker, video recorded for the whole process by surveillance system, sound stimulated (≥120 dB) for 3 minutes, or stop after the animal was died, and the experiment was ended.
Test method: After the end of the experiment, the epilepsy seizure latency (2 grade appearance was regarded as seizures, and the longest latency period was recorded as 300 seconds if no epilepsy was observed) and seizure level (Level 0: no epileptic response; Level 1: rapid running and continuous jump; Level 2: paroxysmal epilepsy; Level 3: tonic epilepsy; Level 4: death) were analyzed according to video record.
Data processing: calculate the mean and standard error of the epilepsy seizure latency and seizure level as well as the percentage of epilepsy death of each group.

[2] = test system: mice; experiment: Head twitches test (5-HTP induced); format: in vivo; conditions: 20 mg/kg, intraperitoneal, in 6 min, FIG. 2
Excerpt: Experimental principle: Model Head Thrust Test (HTT) is first raised by Corne et al. in 1963, head twitches syndrome caused by 5-HT receptor excitement may be mediated through the 5-HT2 receptor. The head twitches behavior induced by 5-HTP in mice is more sensitive to antidepressants with different action mechanisms, such as citalopram, fluvoxamine and other 5-HT retake inhibitors, desipramine, maprotiline, nomifensine and other NA retake inhibitors and imipramine acting on both 5-HT and NA system.
Experimental method: 20-24 g male mice were selected. 3 h before the test, 100 mg/kg pargyline was intraperitoneal injected and then intraperitoneal injected with test drugs or saline. 5-HTP (5 mg/kg, ip) was injected 30 min later. After 10 min, the observation was started and the number of mice head twitches in 6 min was recorded. The numbers of the head twitches of experimental group and the saline control group were compared.

In the case of `Cc1nc(C#Cc2ccc(F)c(C(=O)Nc3cccnc3)c2)cs1` [ZD043], the “Mortality (%)” value ([1]; 10 mg/kg intraperitoneal) was 25%, the “Latency” value ([1]; 10 mg/kg intraperitoneal, single injection, 30 min before test) was 133.9 s and the Seizure level ([1]; 10 mg/kg intraperitoneal) was 1.4. The “Latency” value ([1]; 20 mg/kg intraperitoneal) was 123.1 s, the “Mortality (%)” value ([1]; 20 mg/kg intraperitoneal) was 12.5% and the Seizure level ([1]; 20 mg/kg intraperitoneal) was 1.5. The “Latency” value ([1]; 30 mg/kg intraperitoneal) was 180 s, the “Mortality (%)” value ([1]; 30 mg/kg intraperitoneal) was 0% and the Seizure level ([1]; 30 mg/kg intraperitoneal) was 0. The “number of head twitches” value [2] was “increase”.
